# Where two headings read alike, the source gives them in different places. Marks after values point to notes of the source that are not given here.
# What was measured:
# [1] = Accumulation of norketotifen in skin after oral administration; format: in vivo; settings: read-out: Terminal half-life (t1/2e)
# Source text: As used herein, the term biophase refers to the site(s) where a drug expresses its therapeutic activity. […] Thus, norketotifen can advantageously be used to treat dermal inflammatory and/or allergic diseases.
# [2] = PK parameters in plasma and skin of dogs after 28 days of oral dosing; format: in vivo; settings: for AUC(0-inf): N=5; for MRT / half-life: dog, po
# Source text: However, for the treatment of the dermal and pulmonary disorders described herein for treatment efficacy, the dermal/pulmonary exposure are more important than systemic exposure, that is, efficacy depends on the skin/pulmonary AUC/Cmax, which are considered to be sites of action for these conditions. The pharmacokinetic parameters in skin and plasma after oral dosing of norketotifen to dogs (N=5) are shown below.
# [3] = Phase 1 study, 8 mg/day for 7 days, plasma steady-state; format: in vivo, human; settings: 8 mg/day for 7 days Phase 1 study
# [4] = Distribution of norketotifen to the lungs after oral administration; format: in vivo; settings: lung / plasma, read-out: Lung concentration relative to plasma concentration
# Source text: Norketotifen, after oral administration, is rapidly absorbed and is also preferentially distributed to the lungs, where the concentration of RS-norketotifen can reach concentrations that may be 100 times higher than the plasma concentration.
# [5] = dog, in vivo
# Method: In the Phase 2 study described herein, doses of 4 mg (maintenance) and 8 mg (loading) were used, with very good effects and with no toxicity. The margin of safety (MOS) was calculated by dividing animal: human doses in mg/kg, or dividing animal systemic exposure (AUC) at no adverse effect level (NOAEL) (a 28-day dog study), with human systemic exposure AUC (from human Phase 1 study), or by dividing animal: to human dose expressed in m2 (body surface area—BSA), or by calculating HED (human equivalent dose).
# [6] = Incidence of vomiting in dogs administered norketotifen as a function of Cmax and AUC; format: in vivo; settings: FIGS. 1 and 2
# [7] = Fed and fasted oral administration of norketotifen to dogs (food effect PK); format: in vivo; settings: 4 mg/kg oral; for AUC(0-inf) / Cmax: dog, plasma, po, 4 mg/kg
# Method: Norketotifen was administered to dogs with and without food. For fed animals, canned food (one can (374 g) of Lamb Ground Dinner with Chicken & Rice per dog was weighed then offered for a period of 30 min prior to dosing at 4 mg/kg. After dosing, dry food (25% protein) was offered. For fasted animals, dogs were fasted overnight and until 4 h post dose and then offered dry food. The results are given in Table 2.
# atopic dermatitis [8] = experiment: Phase 2a study of oral norketotifen in atopic dermatitis; format: in vivo, human
# Method: The efficacy and safety of norketotifen orally administered to human subjects over a 28 day period were determined in a Phase 2 study. Norketotifen efficacy was compared to the clinical data in the prescribing information for Eucrisa® by dermal application; and compared to the clinical data in the prescribing information (product monograph) for Dupixent® by subcutaneous administration. In the Phase 2a study, 8 subjects were administered Placebo and 16 subjects were administered norketotifen. Oral norketotifen was administered at 4 mg BID (twice per day) for 4 days, followed by 4 mg QD (once per day). The duration of the study was 4 weeks. The parameters determined were: IGA score, Investigator's Global Assessment scale. The scale is as follows: • 0=clear—No inflammatory signs of atopic dermatitis (no erythema, no induration/papulation, no lichenification, no oozing/crusting). Post-inflammatory hyperpigmentation and/or hypopigmentation may be present. • 1=almost clear—Barely perceptible erythema, barely perceptible induration/papulation, and/or minimal lichenification. No oozing or crusting. • 2=mild—Slight but definite erythema (pink), slight but definite induration/papulation, and/or slight but definite lichenification. No oozing or crusting. • 3=moderate—Clearly perceptible erythema (dull red), clearly perceptible induration/papulation, and/or clearly perceptible lichenification. Oozing and crusting may be present. • 4=severe—Marked erythema (deep or bright red), marked induration/papulation, and/or marked lichenification. Disease is widespread in extent. Oozing or crusting may be present. In the IGA assessment, a responder was identified as a subject with IGA 0 or 1 (clear or almost clear) after treatment. A partial responder was defined as having an IGA score>1, but less than the initial score recorded on Day 1. A non-responder is a subject in which the initial IGA score was identical to the IGA score at the end of treatment (i.e. no change in score numbers). […] In Table 4, the results for norketotifen were compared to the results from the Dupixent® prescribing information.
# atopic dermatitis [9] = settings: 16 weeks, 224 subjects, cited from earlier work
# [10] = Fast (fasted overnight until 4 h post dose)
# [11] = oral 4 mg BID for 4 days, then 4 mg QD for 24 days, 4 weeks, 16 subjects
compound,measurement,setting,value
O=C1Cc2ccccc2C(=C2CCNCC2)c2ccsc21 (racemic) [norketotifen],half-life,[1],144 to 168 h
same,AUC(0-inf),"[2]; dog plasma, after 28 days of oral dosing",4520 ng·h/mL
same,AUC(0-inf),"[2]; dog skin, after 28 days of oral dosing",46100 ng·h/mL
same,MRT,"[2]; plasma, dog plasma, after 28 days of oral dosing, read-out: MRT (mean residence time)",17.5 h
same,half-life,"[2]; plasma, dog plasma, after 28 days of oral dosing, read-out: t ½(e) (converted)",38.3 h
same,MRT,"[2]; skin, dog skin, Phase 2 = 14 day post dosing period, read-out: MRT (phase 2)",159 h
same,half-life,"[2]; skin, dog skin, Phase 2 = 14 day post dosing period, read-out: t ½(e) (phase 2) (converted)",160 h
same,MRT,"[2]; skin, dog skin, after 28 days of oral dosing, read-out: MRT (mean residence time)",86.5 h
same,half-life,"[2]; skin, dog skin, after 28 days of oral dosing, read-out: t ½(e) (converted)",25.4 h
same,Time to plasma steady-state,[3],≤ 4 days
same,Kp,[4],~100
same,"Margin of safety (animal: human), Systemic exposure (AUC0-inf.)",[5]; 2 mg,127-fold
same,"Margin of safety (animal: human), Systemic exposure (AUC0-inf.)",[5]; 4 mg,72-fold
same,"Margin of safety (animal: human), Systemic exposure (AUC0-inf.)",[5]; 16 mg,19-fold
same,"Margin of safety (animal: human), Systemic exposure (AUC0-inf.)",[5]; 32 mg,6-fold
same,"Margin of safety (animal: human), Systemic exposure (AUC0-inf.)",[5]; 64 mg,3-fold
same,Incidence of vomiting vs systemic Cmax and AUC,[6],incidence of vomiting increases as both systemic Cmax and AUC increase
same,"% difference in AUC0-∞, fed vs fasted (reduction in fed animals)",[7],26%
same,AUC(0-inf),[7]; [10],522 ng·h/mL
same,Cmax,[7]; [10],93 ng/mL
same,AUC(0-inf),[7]; Fed,390 ng·h/mL
same,Cmax,[7]; Fed,58 ng/mL
same,Safety/tolerability in the safety population,"atopic dermatitis [8]; 28 days oral treatment, adverse event in only one patient, resolved completely","well-tolerated, with no reported instances of serious adverse events or treatment-related adverse events"
same,Toxicity at Phase 2 doses,atopic dermatitis [8]; doses of 4 mg (maintenance) and 8 mg (loading),no toxicity
same,Nausea or vomiting when dosed on a full stomach,"atopic dermatitis [8]; human subjects, with food, up to a dose of 16 mg",no nausea or vomiting was noted
same,% reduction of affected BSA (Baseline to Day 29),"atopic dermatitis [8]; oral 4 mg BID for 4 days, then 4 mg QD for 24 days",−63.3%^
same,"IGA scores >1, but less than the initial scores on Day 1 (partial responders)",atopic dermatitis [8]; [11],50%
same,Non responders at all,atopic dermatitis [8]; [11],6.1%
same,"IGA scores ≤1, percent responders","atopic dermatitis [8]; oral 4 mg BID for 4 days, then 4 mg QD for 24 days, 4 weeks, 16 subjects, p = 0.0095 / 0.0031 vs Placebo (Fisher's exact test)",43.89% ^b
same,"Pruritus, score 0, percentage improvement for NK group","atopic dermatitis [8]; pruritus severity scale 0-3, 4 weeks, p = 0.016 vs Placebo",62.5%^c
"Dupilumab: recombinant human IgG4 monoclonal antibody binding IL-4Rα, inhibits IL-4 and IL-13 signaling; subcutaneous injection","IGA scores ≤1, percent responders",atopic dermatitis [9]; 300 mg Q2W subcutaneous,37.9%
same,"NRS ≥4 score improvement, percentage response for dupilumab group","atopic dermatitis [9]; pruritus NRS 0-10, 300 mg Q2W",40.8%

# — patent US20250186421A1, “METHODS OF TREATING INFLAMMATORY AND/OR ALLERGIC DISORDERS WITH NORKETOTIFEN” (Bridge Pharma, Inc., priority 2025, published 2025)
